Test results reported in PMC7016953 (Cells, 2020).

System: PC12 cells (native TRPC3 channel complexes)
Experiment: [Ca2+]i analysis in fura-2-loaded PC12 cells
Assay type: cell-based, rat
Protocol: Human embryonic kidney 293 (HEK293) cells were stably transfected with expression plasmids that encode hTRPC3-YFP, hTRPC6-YFP, hTRPC7-YFP, mTRPC4ß-YFP, rTRPV1-CFP, rTRPV2-YFP, rTRPV3-YFP, mTRPV4-YFP, or hTRPM2 as previously described. Cell lines were cultured in Earle’s minimum essential medium (MEM; Sigma, Munich, Germany), supplemented with 10% fetal calf serum (Gibco Thermo Fisher Scientific, Darmstadt, Germany), 2 mM L-glutamine, and required concentrations of geneticin in a range of 0.4–1 mg/mL. A HEK293mTRPC5-YFP cell line was maintained and induced as described before. The HEK293mTRPM3α2 cells (expressing the Ca^2+-permeable main variant of mouse TRPM3) were kindly provided by Johannes Oberwinkler (Marburg, Germany), the HEK293hTRPA1 cells that constitutively overexpress the human TRPA1 were from Dr. Natalie Tigue and Dr. Steve Moore (GlaxoSmithKline, Harlow, UK). With the exception of mTRPC5-YFP, all cell lines constitutively overexpress the respective TRP channel under the control of a cytomegalovirus (CMV) promoter. A HEK cell line stably expressing the human protein kinase C (PKC) ε C-terminally tagged with YFP [13] was generated and maintained in the same medium as HEKTRPC3-YFP cells. PC12 cells were cultured in RPMI-1640 (Sigma, Munich, Germany) with 10% fetal calf serum, 2 mM L-glutamine, 100 U/mL penicillin, and 0.1 mg/mL streptomycin. For electrophysiological and single cell [Ca^2+]i imaging experiments, PC12 cells were plated onto 25 mm poly-L-lysine-coated glass coverslips and measured 24–48 h after seeding. All cells were maintained at 37 °C in a 5% CO2-aerated, humidified atmosphere.
The microfluorometric single-cell [Ca^2+]i analysis was performed on an inverted epifluorescence microscope (Carl Zeiss, Jena, Germany) and calibrated as described. Cells were grown on 25 mm coverslips and loaded with 4 µM fura-2/AM (AAT Bioquest, Sunnyvale, CA, U.S.A.) in HBS containing 0.2% BSA for 30 min at 37 °C. After gently rinsing the coverslips with HBS, coverslips were mounted in a bath chamber and superfused with HBS containing 0.035% BSA.
Figure 7 Expression of TRPC3 and functional responses to TRPC activators in PC12 rat pheochromocytoma cells. (A) Immunofluorescence analysis of TRPC3 (green channel) and tyrosine hydroxylase (TH; red channel) expression in PC12 cells. Nuclei were counterstained with DAPI (blue channel). Bars: 20 µm scale. Time course of the [Ca^2+]i (B) and averaged basal and peak [Ca^2+]i values (C) were recorded by microfluorometric analysis in fura-2-loaded PC12 cells grown on glass coverslips. […] Data represent averages (B) or means and S.D. (C) of 6–12 imaging experiments for each compound. Significant increases compared to the respective basal values are indicated (#: p < 0.05; Student´s t-test for paired data).

## C[C@@H]1CC[C@H]2[C@@H](C)C(=O)O[C@@H]3O[C@@]4(C)CC[C@@H]1[C@]32OO4 [artemisinin]
Artemisinin 50 or 100 µM, 6–12 experiments for each compound
  [Ca2+]i in fura 2-loaded PC12 cells: significant increases in [Ca^2+]i
Neuronal growth factor treatment
  response to artemisinin after neuronal growth factor treatment of PC12 cells: lower response
